One assay deals with T1, BRD4 (BDI_K57-E168) (Homo sapiens, UniProt O60885).
T1 construct: BD1: amino acids K57-E168; made in house
Briefly: TR-FRET bromodomain binding assay, first bromodomain of BRD4. As to conditions: His-tagged BD1, 100 nM Alexa647 probe; TR-FRET protocol A-E given per row. The procedure, abridged: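 His-tagged BRD4 BD1 (K57-E168), 8 nM, with 1 nM Eu-anti-His antibody and 100 nM Alexa647-labelled BET-inhibitor probe in pH 6.0 phosphate buffer, 2% DMSO. TR-FRET read after 1 h at room temperature. IC50 from 4-parameter fit, converted to Ki using probe Kd and concentration.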
(In general: TR-FRET usually uses a lanthanide donor and a delayed reading to cut background.)

For assay [1], the system named is breast cancer cell line MX-1. The assay is described as follows: MX-1 cell line proliferation assay. Type of assay: cell-based. As to conditions: Homo sapiens, MX1, 72 h, MX-1 cells, 3-day proliferation assay, Cell Titer Glo; read-out: Cellular proliferation EC50. Here is the method: The impact of compounds of the Examples on cancer cell proliferation was determined using the breast cancer cell line MX-1 (ATCC) in a 3-day proliferation assay and the data are reported in Table 1. MX-1 cells were maintained in RPMI 1640 medium (Sigma) supplemented with 10% FBS at 37° C. and an atmosphere of 5% CO2. For compound testing, MX-1 cells were plated in 96-well black bottom plates at a density of 5000 cells/well in 90 μL of culture media and incubated at 37° overnight to allow cell adhesion and spreading. Compound dilution series were prepared in DMSO via a 3-fold serial dilution from 3 mM to 0.1 μM. The DMSO dilution series were then diluted 1:100 in phosphate buffered saline, and 10 μL of the resulted solution were added to the appropriate wells of the MX-1 cell plate. The final compound concentrations in the wells were 3, 1, 0.3, 0.1, 0.03, 0.01, 0.003, 0.001, 0.0003 and 0.0001 μM.
Luminescence readings from the Cell Titer Glo assay were normalized to the DMSO treated cells and analyzed using the GraphPad Prism software with sigmoidal curve fitting to obtain EC50s. The minimum significant ratio (MSR) was determined to evaluate assay reproducibility (Eastwood et al., (2006) J Biomol Screen, 11: 253-261).
A general note: Cellular ATP, detected with luciferase, serves as a proxy for viable cell number.

In the next assay the target is T2, BRD4 (BDII_E352-M457) (Homo sapiens, UniProt O60885).
T2 construct: proliferation; Protocol; made in house
The assay is described as follows: TR-FRET bromodomain binding assay, second bromodomain of BRD4. Conditions: His-tagged BD2, 30 nM Alexa647 probe; TR-FRET protocol A-E given per row. The procedure, abridged:
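His-tagged BRD4 BD2 ([…]) competed against an Alexa647-labelled BET-inhibitor probe in TR-FRET. Buffer was 20 mM sodium phosphate pH 6.0, 50 mM NaCl, 1 mM EDTA, 0.01% Triton X-100, 1 mM DTT, with method D DMSO series of 2.5 mM–800 nM (stock range). IC50 from 4-parameter fit, Ki from probe Kd and concentration.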

Each structure is given as a SMILES string.

For orientation: Ki means a measure of affinity in units of concentration, obtained from inhibition or displacement. A higher Ki goes with lower affinity. On to `Cn1cc(-c2cc(CS(N)(=O)=O)ccc2Oc2ccc(F)cc2F)c2cc[nH]c(=O)c21` [Example 96, 1-[4-(2,4-difluorophenoxy)-3-(1-methyl-7-oxo-6,7-dihydro-1H-pyrrolo[2,3-c]pyridin-3-yl)phenyl]methanesulfonamide], for which the Ki at BRD4 (BDI_K57-E168) was determined as 6.9 nM; at BRD4 (BDII_E352-M457), 11 nM. Besides, the EC50 in assay [1] was 15 nM.

`Cn1cc(-c2cc(S(C)(=O)=O)ccc2OCC2CCOC2)c2cc[nH]c(=O)c21` (stereo not drawn) [Example 23, 1-methyl-3-[5-(methylsulfonyl)-2-(tetrahydrofuran-3-ylmethoxy)phenyl]-1,6-dihydro-7H-pyrrolo[2,3-c]pyridin-7-one]: the inhibition constant (Ki) at BRD4 (BDI_K57-E168) was 13 nM; at BRD4 (BDII_E352-M457) it was 117 nM. Also, the EC50 in assay [1] worked out at 256 nM.

With `CCS(=O)(=O)c1ccc(Oc2c(C)nn(C)c2C)c(-c2cn(C)c3c(=O)[nH]ccc23)c1` [Example 90, 3-{5-(ethylsulfonyl)-2-[(1,3,5-trimethyl-1H-pyrazol-4-yl)oxy]phenyl}-1-methyl-1,6-dihydro-7H-pyrrolo[2,3-c]pyridin-7-one], the Ki at BRD4 (BDI_K57-E168) is 54 nM; on BRD4 (BDII_E352-M457), 39 nM. In addition, the EC50 in assay [1] came to 96 nM.

Regarding `Cn1cc(-c2cc(S(C)(=O)=O)ccc2OC2CCOCC2)c2cc[nH]c(=O)c21` [Example 24, 1-methyl-3-[5-(methylsulfonyl)-2-(tetrahydro-2H-pyran-4-yloxy)phenyl]-1,6-dihydro-7H-pyrrolo[2,3-c]pyridin-7-one], the inhibition constant Ki at BRD4 (BDI_K57-E168) was 17 nM; on BRD4 (BDII_E352-M457) it was 89 nM. Further, in assay [1], the EC50 was found to be 231 nM.

Turning to `CCS(=O)(=O)c1ccc(Oc2ccc(C)cc2Cl)c(-c2cn(C)c3c(=O)[nH]ccc23)c1` [Example 73, 3-[2-(2-chloro-4-methylphenoxy)-5-(ethylsulfonyl)phenyl]-1-methyl-1,6-dihydro-7H-pyrrolo[2,3-c]pyridin-7-one], the Ki at BRD4 (BDI_K57-E168) was determined as 43 nM; at BRD4 (BDII_E352-M457), 21 nM. Besides, the EC50 in assay [1] amounted to 194 nM.

Take `Cn1cc(-c2cc(S(=O)(=O)N3CCc4ccccc43)ccc2OCC2CC2)c2cc[nH]c(=O)c21` [Example 97, 3-[2-(cyclopropylmethoxy)-5-(2,3-dihydro-1H-indol-1-ylsulfonyl)phenyl]-1-methyl-1,6-dihydro-7H-pyrrolo[2,3-c]pyridin-7-one]: the values for the Ki on BRD4 (BDI_K57-E168) and on BRD4 (BDII_E352-M457) were 158 nM and 81 nM, respectively. Further, the EC50 in assay [1] turned out to be 398 nM.

On to `CCS(=O)(=O)Nc1ccc(Oc2ccc(F)cc2F)c(-c2cn(C)c3c(=O)[nH]c(C4CCN(S(=O)(=O)CC)CC4)cc23)c1` [Example 186, N-[4-(2,4-difluorophenoxy)-3-{5-[1-(ethylsulfonyl)piperidin-4-yl]-1-methyl-7-oxo-6,7-dihydro-1H-pyrrolo[2,3-c]pyridin-3-yl}phenyl]ethanesulfonamide], for which the Ki at BRD4 (BDI_K57-E168) was 0.38 nM; on BRD4 (BDII_E352-M457), 0.82 nM. For the same compound, the EC50 in assay [1] was determined as 13.4 nM.

`Cn1cc(-c2cc(CS(C)(=O)=O)ccc2Oc2ccc(F)cc2F)c2cc(Cl)[nH]c(=O)c21` [Example 91, 5-chloro-3-{2-(2,4-difluorophenoxy)-5-[(methylsulfonyl)methyl]phenyl}-1-methyl-1,6-dihydro-7H-pyrrolo[2,3-c]pyridin-7-one]: the figures for the Ki at BRD4 (BDI_K57-E168) and at BRD4 (BDII_E352-M457) were 5.4 nM and 9.5 nM, respectively. In addition, the EC50 in assay [1] was determined as 8 nM.

With `CCS(=O)(=O)C(C)c1ccc(Oc2ccc(F)cc2F)c(-c2cn(C)c3c(=O)[nH]ccc23)c1` (single isomer, unassigned) [Example 56], the values for the inhibitory constant (Ki) on BRD4 (BDI_K57-E168) and on BRD4 (BDII_E352-M457) were 13 nM and 18 nM, respectively. Further, the EC50 in assay [1] was found to be 36 nM.

Consider `CCS(=O)(=O)C(C)c1ccc(Oc2ccc(F)cc2F)c(-c2cn(C)c3c(=O)[nH]ccc23)c1` (stereo not drawn) [Example 55, 3-{2-(2,4-difluorophenoxy)-5-[1-(ethylsulfonyl)ethyl]phenyl}-1-methyl-1,6-dihydro-7H-pyrrolo[2,3-c]pyridin-7-one], for which the figures for the Ki at BRD4 (BDI_K57-E168) and on BRD4 (BDII_E352-M457) were 4.2 nM and 9.9 nM, respectively. The EC50 in assay [1] worked out at 29 nM.

Turning to `Cn1cc(-c2cc(S(C)(=O)=O)ccc2Oc2ccc(F)cc2F)c2c(Cl)c[nH]c(=O)c21` [Example 108, 4-chloro-3-[2-(2,4-difluorophenoxy)-5-(methylsulfonyl)phenyl]-1-methyl-1,6-dihydro-7H-pyrrolo[2,3-c]pyridin-7-one], the inhibition constant Ki worked out at 93 nM on BRD4 (BDI_K57-E168) and 181 nM at BRD4 (BDII_E352-M457). For the same compound, the EC50 in assay [1] came to 460 nM.

In the case of `Cn1cc(-c2cc(CNS(=O)(=O)c3ccccc3)ccc2Oc2ccc(F)cc2F)c2cc[nH]c(=O)c21` [Example 141, N-[4-(2,4-difluorophenoxy)-3-(1-methyl-7-oxo-6,7-dihydro-1H-pyrrolo[2,3-c]pyridin-3-yl)benzyl]benzenesulfonamide], the figures for the inhibitory constant (Ki) at BRD4 (BDI_K57-E168) and on BRD4 (BDII_E352-M457) were 64 nM and 495 nM, respectively. In addition, the EC50 in assay [1] was 980 nM.

Turning to `Cn1cc(-c2cc(S(C)(=O)=O)ccc2OCC(C)(C)C)c2cc[nH]c(=O)c21` [Example 27, 3-[2-(2,2-dimethylpropoxy)-5-(methylsulfonyl)phenyl]-1-methyl-1,6-dihydro-7H-pyrrolo[2,3-c]pyridin-7-one], the Ki at BRD4 (BDI_K57-E168) is 8 nM; on BRD4 (BDII_E352-M457), 32 nM. In addition, the EC50 in assay [1] turned out to be 176 nM.

`Cn1cc(-c2cc(NS(C)(=O)=O)c(Oc3ccc(F)cc3F)cc2Oc2ccc(F)cc2F)c2cc[nH]c(=O)c21` [Example 13, N-[2,4-bis(2,4-difluorophenoxy)-5-(1-methyl-7-oxo-6,7-dihydro-1H-pyrrolo[2,3-c]pyridin-3-yl)phenyl]methanesulfonamide]: the Ki on BRD4 (BDI_K57-E168) is 173 nM; at BRD4 (BDII_E352-M457), 213 nM. In addition, the EC50 in assay [1] stood at 136 nM.

As for `Cn1cc(-c2cc(CS(C)(=O)=O)ccc2Nc2ccc(F)cc2)c2cc[nH]c(=O)c21` [Example 121, 3-{2-[(4-fluorophenyl)amino]-5-[(methylsulfonyl)methyl]phenyl}-1-methyl-1,6-dihydro-7H-pyrrolo[2,3-c]pyridin-7-one], the inhibition constant (Ki) at BRD4 (BDI_K57-E168) is 12 nM; at BRD4 (BDII_E352-M457) it was 79 nM. Moreover, the EC50 in assay [1] is 40 nM.

Take `Cn1cc(-c2cc(CS(C)(=O)=O)ccc2Nc2ccc(F)cc2F)c2cc[nH]c(=O)c21` [Example 122, 3-{2-[(2,4-difluorophenyl)amino]-5-[(methylsulfonyl)methyl]phenyl}-1-methyl-1,6-dihydro-7H-pyrrolo[2,3-c]pyridin-7-one]: the Ki at BRD4 (BDI_K57-E168) was found to be 25 nM; on BRD4 (BDII_E352-M457), 55 nM. Further, in assay [1], the EC50 stood at 44 nM.

Turning to `Cn1cc(-c2cc(CNCC3CC3)ccc2Oc2ccc(F)cc2F)c2cc[nH]c(=O)c21` [Example 118, 3-[5-{[(cyclopropylmethyl)amino]methyl}-2-(2,4-difluorophenoxy)phenyl]-1-methyl-1,6-dihydro-7H-pyrrolo[2,3-c]pyridin-7-one], the values for the Ki on BRD4 (BDI_K57-E168) and on BRD4 (BDII_E352-M457) were 776 nM and 382 nM, respectively. Moreover, in assay [1], the EC50 was found to be 1510 nM.

On to `CCS(=O)(=O)Nc1ccc(OC2COC2)c(-c2cn(C)c3c(=O)[nH]ccc23)c1` [Example 10, N-[3-(1-methyl-7-oxo-6,7-dihydro-1H-pyrrolo[2,3-c]pyridin-3-yl)-4-(oxetan-3-yloxy)phenyl]ethanesulfonamide], for which the Ki came out at 18 nM at BRD4 (BDI_K57-E168) and 142 nM at BRD4 (BDII_E352-M457). Moreover, the EC50 in assay [1] is 225 nM.

As for `CCS(=O)(=O)Nc1ccc(Oc2ccc(F)cc2F)c(-c2cn(C)c3c(=O)[nH]c(C4CCNCC4)cc23)c1` [Example 183, N-{4-(2,4-difluorophenoxy)-3-[1-methyl-7-oxo-5-(piperidin-4-yl)-6,7-dihydro-1H-pyrrolo[2,3-c]pyridin-3-yl]phenyl}ethanesulfonamide], the Ki was determined as 2.63 nM on BRD4 (BDI_K57-E168) and 13.4 nM on BRD4 (BDII_E352-M457). For the same compound, in assay [1], the EC50 is 356 nM.

Consider `Cn1cc(-c2cc(CNS(=O)(=O)C3CCCC3)ccc2Oc2ccc(F)cc2F)c2cc[nH]c(=O)c21` [Example 137, N-[4-(2,4-difluorophenoxy)-3-(1-methyl-7-oxo-6,7-dihydro-1H-pyrrolo[2,3-c]pyridin-3-yl)benzyl]cyclopentanesulfonamide], for which the Ki came to 106 nM on BRD4 (BDI_K57-E168) and 374 nM at BRD4 (BDII_E352-M457). The EC50 in assay [1] worked out at 872 nM.

On to `Cn1cc(-c2cc(S(C)(=O)=O)ccc2NCC2C[C@@H]3CC[C@H]2C3)c2cc[nH]c(=O)c21` (stereo partly drawn) [Example 71, 3-[2-{[(1S,4R)-bicyclo[2.2.1]hept-2-ylmethyl]amino}-5-(methylsulfonyl)phenyl]-1-methyl-1,6-dihydro-7H-pyrrolo[2,3-c]pyridin-7-one], for which the Ki amounted to 197 nM on BRD4 (BDI_K57-E168) and 285 nM at BRD4 (BDII_E352-M457). In addition, the EC50 in assay [1] was 255 nM.

Values taken from patent US9321764B2, “Dihydro-pyrrolopyridinone inhibitors” (AbbVie Inc., priority 2013, dated 2016).
